Measured values: patent US20230390250A1, “MODULATION OF GLUCAGON-LIKE PEPTIDE 1 AND USES THEREOF” (priority 2020, published 2023)
“Also recorded” adds a separate entry of the source. Like-named read-outs stand apart in the source and are kept apart here.

Columns and labels:
LPAR1 [1] = target: T1, LPAR1 (Homo sapiens, UniProt Q92633); conditions: cited from earlier work
Target sequence in this assay (Q92633 whole entry, species assumed): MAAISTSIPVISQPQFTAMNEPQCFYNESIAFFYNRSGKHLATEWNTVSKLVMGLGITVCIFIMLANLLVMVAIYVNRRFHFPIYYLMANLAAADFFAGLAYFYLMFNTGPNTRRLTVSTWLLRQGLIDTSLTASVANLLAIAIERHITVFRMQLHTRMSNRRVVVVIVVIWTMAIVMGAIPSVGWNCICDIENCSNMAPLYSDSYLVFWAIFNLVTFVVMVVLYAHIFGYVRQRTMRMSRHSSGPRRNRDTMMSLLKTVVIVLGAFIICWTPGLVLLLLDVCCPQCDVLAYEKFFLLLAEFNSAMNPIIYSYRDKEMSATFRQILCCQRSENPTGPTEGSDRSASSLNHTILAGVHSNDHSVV

LPAR2 = LPAR2 (Homo sapiens, UniProt Q9HBW0); conditions: cited from earlier work
GLUTag cells = assay: GLP-1 secretion from cultured GLUTag cells treated with LPA and/or LPAR antagonist; assay type: cell-based, mouse; conditions: for rescue of LPA-inhibited GLP-1 secretion by LPAR antagonist: 10 μM antagonist plus 2.5 μM LPA
Method: We have grown GLUTag cells in culture to test effects of various LPA species and the LPAR 1/2/3 inhibitor Ki-16425. GLUTag cells are a well characterized L-cell line derived from a mouse intestinal tumour, which have been widely used to study the regulation of GLP-1. Briefly, GLUTag cells were grown until 80-90% confluent. Complete medium, containing fetal bovine serum, was replaced with medium containing charcoal[…] dextran treated serum, which removes lipids and hormones that could interfere with testing. […] This indicates a direct inhibitory effect of LPA at physiologically relevant levels on GLP-1 secretion by L-cells, and the ability of a commercially available LPAR antagonist to prevent this.
Experimental Protocol. Briefly, GLUTag cells were grown until 70-80% confluent. Complete medium (low glucose DMEM), containing fetal bovine serum, was replaced with medium containing charcoal-dextran treated serum, which removes lipids and hormones that could interfere with testing. Cells were then treated with medium containing either DMSO as vehicle control (0.1% v/v), 2.5 μM LPA, 10 μM LPAR antagonist, or a combination of the LPA species and inhibitors. For cells treated with both LPA plus LPAR inhibitor: cells were pre-treated with LPA for 30 minutes and then 10 uM LPAR inhibitor was added to the respective wells for a further 2 hours. For cells treated with LPA only, or vehicle only, the total treatment time was 2.5 hours. For cells treated with antagonist only, the treatment time was 2 hours.

LPAR4 = target: T2, LPAR4 (Homo sapiens, UniProt Q99677); conditions: cited from earlier work
T2 construct: host or cells: CHO cells
T2 sequence (Q99677 whole entry, species assumed): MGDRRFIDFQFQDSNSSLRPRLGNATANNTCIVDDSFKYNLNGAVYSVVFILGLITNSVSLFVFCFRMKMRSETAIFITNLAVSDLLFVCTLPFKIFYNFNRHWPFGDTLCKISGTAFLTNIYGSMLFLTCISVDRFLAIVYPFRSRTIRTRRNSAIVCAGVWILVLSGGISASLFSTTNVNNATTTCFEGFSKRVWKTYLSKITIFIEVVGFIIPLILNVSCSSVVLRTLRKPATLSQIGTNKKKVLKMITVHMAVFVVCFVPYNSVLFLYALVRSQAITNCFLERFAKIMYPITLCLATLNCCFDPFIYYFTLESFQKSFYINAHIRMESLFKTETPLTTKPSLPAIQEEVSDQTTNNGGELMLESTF

recombinant mouse LPAR1 = target: T3, recombinant mouse LPAR1 (Mus musculus, UniProt P61793); conditions: CHO cell membranes; read-out: IC50, inhibition of GTP-gamma-s binding, mouse LPAR1; cited from earlier work
T3 construct: expressed in transfected cells; host or cells: CHO cell membranes
T3 sequence (P61793 whole entry): as the sequence (Q92633 whole entry, species assumed) above, with I4A, I8S, P22Q, H40Y, I61V, E193D, N194H, I269V, S331N, T335N counted along it

LPAR3 = target: T4, LPAR3 (Homo sapiens, UniProt Q9UBY5); conditions: cited from earlier work
T4 sequence (Q9UBY5 1-353): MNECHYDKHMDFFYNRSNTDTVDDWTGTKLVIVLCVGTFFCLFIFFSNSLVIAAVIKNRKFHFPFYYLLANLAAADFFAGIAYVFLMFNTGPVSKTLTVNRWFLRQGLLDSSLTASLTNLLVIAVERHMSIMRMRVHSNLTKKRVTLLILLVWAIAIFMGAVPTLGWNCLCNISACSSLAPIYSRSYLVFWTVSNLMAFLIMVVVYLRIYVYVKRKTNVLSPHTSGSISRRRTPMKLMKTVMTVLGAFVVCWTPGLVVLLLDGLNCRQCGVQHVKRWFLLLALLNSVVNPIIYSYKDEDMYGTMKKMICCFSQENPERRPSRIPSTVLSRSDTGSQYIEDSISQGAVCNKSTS

GLP-1 [2] = assay: Circulating GLP-1 in mice injected with LPA, with or without LPAR antagonist pre-treatment; assay type: in vivo; conditions: for rescue of the fall in blood GLP-1 levels caused by LPA: serum at 30 min (Examples 6, 8); for blood GLP-1 with antagonist alone versus vehicles: no LPA; for prevention of LPA-induced decrease in plasma GLP-1: 5 mg/kg i.p. 10 min before 50 mg/kg 1-oleoyl-2-hydroxy-LPA, n=3 (Example 3, FIG. 4)
Method: We injected mice i.p. with vehicle (10% DMSO in isotonic saline) or 50 mg/kg of 1-oleoyl-2-hydroxy-LPA. Half of the mice injected with LPA were pre-injected with 5 mg/kg Ki-16425 10 minutes prior to receiving LPA. Thirty minutes later, samples of blood were taken by cardiac puncture, and circulating active GLP-1 levels in plasma were analysed by enzyme linked immunosorbent assay.
(§1) The experimental protocol was as follows: • 1. Mice were administered an LPAR antagonist drug, either by oral gavage (for BMS986020, SARI 00842, AM966, AM095, or H2L51863030), or by i.p. injection (for Ki-16425, and LPA2-antagonistl) at the doses indicated in the table below. • 2. Control mice were administered only the vehicle (a 10% DMSO solution) given via the same route as the comparison drug was administered. • 3. Ten minutes later, mice were injected i.p. either with isotonic saline, or with 50 mg/kg LPA. • 4. Thirty minutes later, mice were euthanized by cervical dyslocation, and blood was collected from the heart for preparation of serum that was stored at −80C until it was analyzed for total GLP-1 concentration by ELISA assay using a GLP-1 enzyme immunoassay kit.

LPAR1 [3] = target: T1, LPAR1; design: expressed in transfected cells; host or cells: CHO cell membranes; conditions: CHO cell membranes; read-out: IC50, inhibition of GTP-gamma-s binding, human LPAR1; cited from earlier work
Target sequence in this assay (Q92633 whole entry): as the sequence (Q92633 whole entry, species assumed) above

DPP4 [4] = assay: DPP4 activity in GLUTag cells (fluorometric kit ab204722); assay type: cell-based, mouse; conditions: for effect of 18:1-LPA combined with LPAR antagonist on DPP4 activity in GLUTag cells: 2.5 uM 18:1-LPA 30 minutes, then 10 uM antagonist 2 hours; for effect of LPAR antagonist alone on DPP4 activity in GLUTag cells: 10 uM antagonist, 2 hours
Method: Briefly, GLUTag cells were grown to produce the recommended quantity needed for the assay according to the manufacturer's protocol (ab204722 Dipeptidyl peptidase IV Activity Assay Kit (Fluorometric)), and then the wells were treated in media containing charcoal-stripped FBS (10%), with either nothing (no treatment control), or vehicle control (0.05% DMSO), or 2.5 uM 18:1-LPA for 30 minutes, and then the inhibitors (as indicated in the graph of FIG. 17) were added to the vehicle wells and the 2.5 uM 18:1-LPA wells at 10 uM concentrations, as indicated on the graph (FIG. 17), for an additional 2 hours. Cells were then harvested according to the manufacturer's protocol, and lysed using reagents from the kit. Charcoal-stripped FBS was used to remove lipids, including LPA, from serum. Experiments were also carried out wherein the FBS was not stripped with charcoal, and the results were not different.
According to the manufacturer, dipeptidyl peptidase IV (DPP4) Activity Assay Kit (Fluorometric) (ab204722) is an assay where DPP4 cleaves a substrate to release a quenched fluorescent group, AMC (7-Amino-4-Methyl Coumarin), which can be easily detected at Ex/Em=360/460 nm. This assay is rapid, simple, sensitive, and reliable, as well as, suitable for high throughput activity screening of DPP4. This kit detects DPP4 activity as low as 3 ρU per well.

LPAR5 = target: T5, LPAR5 (Homo sapiens, UniProt Q9H1C0); conditions: cited from earlier work
T5 construct: host or cells: CHO cells
T5 sequence (Q9H1C0 whole entry, species assumed): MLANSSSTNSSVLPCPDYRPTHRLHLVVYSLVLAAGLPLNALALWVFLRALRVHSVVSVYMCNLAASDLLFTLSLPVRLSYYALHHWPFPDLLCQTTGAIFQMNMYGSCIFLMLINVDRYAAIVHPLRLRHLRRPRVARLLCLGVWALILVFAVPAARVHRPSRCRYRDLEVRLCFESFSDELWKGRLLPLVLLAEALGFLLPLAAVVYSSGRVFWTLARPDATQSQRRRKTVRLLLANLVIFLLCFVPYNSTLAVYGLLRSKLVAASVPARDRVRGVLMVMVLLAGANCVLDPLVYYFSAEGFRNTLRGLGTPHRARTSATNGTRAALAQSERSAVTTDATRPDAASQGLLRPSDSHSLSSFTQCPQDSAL

insulin secretion = conditions: prior study, Rancoule et al. 2013, cited from earlier work
GLP-1 [5] = assay: Blood GLP-1 in RT-SAKO mice (elevated endogenous LPA) treated with Ki-16425; assay type: in vivo; conditions: 30 minutes after injection
Description: Our laboratory has created a new genetic mouse model to study the isolated effects of obesity on kidney health. This model was not created to test LPA metabolism or to study GLP-1 regulation, but we have made important discoveries on these topics. We have made mice that lack the enzyme adipose triglyceride lipase (ATGL) in renal tubule cells, and have named these mice renal tubule-specific adipose triglyceride lipase knockout (or RT-SAKO) mice. These mice develop fatty kidneys, and as a side effect of changes in kidney cell metabolism, their kidneys make more LPA. As a result, RT-SAKO mice develop elevations in blood lysophosphatidic acid levels by 16-18 weeks of age (FIG. 5, left panel). They also have low circulating levels of GLP-1 (FIG. 5, right panel).

[6] = Glucose intolerance and insulin secretion in fatty-kidney (RT-SAKO) mice; assay type: in vivo
DPP4 [7] = assay: DPP4 activity in serum of C57BI/6J mice; assay type: in vivo
Method: Mice were injected with 5 mg/kg Ki16425 or control (10% DMSO in isotonic saline), then injected 10 mins later with 50 mg/kg 1-18:1-LPA or saline (vehicle control), then euthanized 30 minutes later for serum collection and analysis.
as §1, with “(for” for “(for BMS986020,”, “00842” for “00842, AM966, AM095,”, “AM966),” for “H2L51863030),”, “Ki-16425)” for “Ki-16425, and LPA2-antagonistl)”, “18:1-LPA.” for “LPA.”

Dpp4 gene expression = Dpp4 gene expression in LPA-treated GLUTag cells (real time PCR); assay type: cell-based, mouse; conditions: 2.5 uM 20:4-LPA, 2 hours and up to 2 days, normalised to Gapdh

LPAR2, sequence (Q9HBW0 whole entry, species assumed): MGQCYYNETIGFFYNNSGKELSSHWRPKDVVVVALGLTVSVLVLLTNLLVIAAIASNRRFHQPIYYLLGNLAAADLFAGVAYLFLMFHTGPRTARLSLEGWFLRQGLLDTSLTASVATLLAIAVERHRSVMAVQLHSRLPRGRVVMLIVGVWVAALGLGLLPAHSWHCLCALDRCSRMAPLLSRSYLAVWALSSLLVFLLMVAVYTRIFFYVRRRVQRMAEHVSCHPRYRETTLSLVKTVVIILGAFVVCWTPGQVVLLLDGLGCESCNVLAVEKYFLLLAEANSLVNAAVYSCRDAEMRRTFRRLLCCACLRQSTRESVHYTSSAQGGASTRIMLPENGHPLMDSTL

## Cc1noc(-c2ccc(-c3ccc(CC(=O)O)cc3)cc2)c1NC(=O)O[C@H](C)c1ccccc1 [AM095]
LPAR1 [1]; read-out: IC50 for LPAR1
  IC50: ~25 nM
LPAR1 [1]; selectivity
  fold greater affinity for LPAR1 than LPAR2-5: > 400 fold
LPAR2
  IC50: ≥ 10000 nM
GLUTag cells; 10 μM antagonist alone, 2 h
  effect of LPAR antagonist alone on GLP-1 levels: no significant effect
GLUTag cells
  rescue of LPA-inhibited GLP-1 secretion by LPAR antagonist: complete rescue
LPAR4
  IC50: ≥ 10000 nM
Recombinant mouse LPAR1
  IC50: 730 nM
LPAR3
  level at which LPAR3 is antagonized: low micromolar levels
LPAR3; read-out: IC50 for LPAR3
  IC50: ≥ 10000 nM
GLP-1 [2]; antagonist 30 mg/kg by gavage 10 min before 50 mg/kg 18:1-LPA i.p.
  rescue of the fall in blood GLP-1 levels caused by LPA: completely abrogated; also recorded: Complete rescues
GLP-1 [2]; antagonist 30 mg/kg by gavage
  blood GLP-1 with antagonist alone versus vehicles: not significantly different from mice treated only with the vehicles
LPAR1 [3]
  IC50: 980 nM
DPP4 [4]
  effect of 18:1-LPA combined with LPAR antagonist on DPP4 activity in GLUTag cells: did not significantly affect
  effect of LPAR antagonist alone on DPP4 activity in GLUTag cells: did not significantly affect
LPAR5
  IC50: ≥ 10000 nM

## Cc1noc(-c2ccc(CSCCC(=O)O)cc2)c1NC(=O)OC(C)c1ccccc1Cl (stereo not drawn) [Ki16425]
LPAR1 [1]
  Ki: 340 nM
Insulin secretion; mice on a high-fat diet
  beta-islet cell number: increased
Insulin secretion
  prevention of LPA-impaired insulin secretion: prevented
LPAR2
  Ki: 6500 nM
GLUTag cells
  rescue of LPA-inhibited GLP-1 secretion by LPAR antagonist: larger effect than the others; also recorded: prevented that decrease
GLUTag cells; listed as Ki-16425
  rescue of LPA-inhibited GLP-1 secretion by LPAR antagonist: completely prevents this decrease; also recorded: restored
GLP-1 [5]
  restoration of blood GLP-1 levels in RT-SAKO mice: restores GLP-1 levels; also recorded: come back up to close to normal
[6]
  glucose intolerance and impaired insulin secretion: rescues
LPAR3
  Ki: 930 nM
  level at which LPAR3 is antagonized: low micromolar levels
GLP-1 [2]
  prevention of LPA-induced decrease in plasma GLP-1: significantly abrogates
GLP-1 [2]; listed as Ki-16425
  prevention of LPA-induced decrease in plasma GLP-1: partially restored; also recorded: partially prevented; also recorded: significantly prevented
GLP-1 [2]; antagonist 5 mg/kg i.p. 10 min before 50 mg/kg 18:1-LPA i.p.
  rescue of the fall in blood GLP-1 levels caused by LPA: completely abrogated; also recorded: Complete rescues; also recorded: restored to normal levels
GLP-1 [2]; antagonist 5 mg/kg i.p.
  blood GLP-1 with antagonist alone versus vehicles: indistinguishable from mice treated only with the vehicles
DPP4 [7]; 5 mg/kg i.p.
  effect of antagonist on DPP4 activity in mouse serum: did not significantly affect; also recorded: lack of effect; also recorded: not significantly affected
DPP4 [7]; antagonist 5 mg/kg i.p. then 50 mg/kg 18:1-LPA
  effect of 18:1-LPA combined with antagonist on DPP4 activity in mouse serum: did not affect
DPP4 [4]
  effect of 18:1-LPA combined with LPAR antagonist on DPP4 activity in GLUTag cells: did not significantly affect
  effect of LPAR antagonist alone on DPP4 activity in GLUTag cells: did not significantly affect

## CCCCC/C=C\C/C=C\C/C=C\C/C=C\CCCC(=O)OCC(O)COP(=O)(O)O (stereo not drawn) [20:4-LPA, 1-arachidonoyl-2-hydroxy-LPA]
GLUTag cells; 2.5 μM LPA species
  fold decrease in GLP-1 secretion / GLP-1 levels in media caused by LPA: ~5 fold
GLUTag cells; 2.5 μM LPA, 2-2.5 h
  decrease in GLP-1 secretion / level caused by LPA (fraction): over 2/3
Dpp4 gene expression
  change in Dpp4 gene expression: did not significantly change
